# Data published in patent US9377466B2, “Compounds and methods” (Modpro AB, priority 2010, dated 2016).
# Side chains are listed from the residue outwards. * marks the point of attachment. Benzoyl(4-SO2NH2) = NS(=O)(=O)c1ccc(C(=O)*)cc1; Acridin9yl = c1ccc2c(*)c3ccccc3nc2c1; X1 = COc1ccc2cc(C(=O)*)c(=O)oc2c1; Ahx = NCCCCCC(=O)O
# How the values were obtained:
# [1] = CD spectroscopy, mean residue ellipticity of the sixteen scaffold polypeptides; format: physicochemical; conditions: error ±1000
# Description: The mean residue ellipticities at 222 nm, [θ]222, □ of the sixteen scaffold polypeptides were recorded at two concentrations, approximately 30 μM and approximately 1 μM, to characterize the state of aggregation, cf.
# The degree of helix formation is related to the monomer-dimer equilibrium since monomers are unordered with low helical content whereas dimers are highly helical. […] While the ^1H NMR spectra have not been recorded of all sequences and of all polypeptide conjugates, it is likely that the sequences presented here are best described as molten globules.
# α-casein = test: Three-step fluorescence titration with α-casein (microtitre plate); format: binding; conditions: polypeptide without PP1; binder in the absence of Zn^2+ ions
# Description: In a preliminary and simple assay executable in microtitre plate format, each of the eight binder candidates at a concentration of 500 nM in 10 mM HEPES buffer and 150 mM NaCl at pH 7.2, equipped with the fluorophor 7-methoxycoumarin-3-carboxylic acid, were titrated with α-casein in three steps (FIG. 8). Concentrations of peptides were determined from the absorbance of the coumarine probe and stock solutions at concentrations of 5 μM were prepared from which aliqiuots were transferred to the microtitre plate. […] The fluorescence emission spectre were recorded in the absence of protein, and in the presence of 500 nM, 1000 nM and 1500 nM protein to determine in a qualitative way whether or not binding was saturated at 500 nM concentration of both binder and protein. Saturation within experimental error at those concentrations is compatible with low nM affinity and tight binding.
# All fluorescence experiments were conducted in 96 well polystyrene plates. All readings were performed by plate reader Molecular Devices Spectra max GEMINI XPS at 25° C. Each plate contained 300 μL of analyte. All polystyrene plates were specially prepared prior the measurements in order to minimize the unspecific binding of the analyte. All wells were filled with 1% aqueous solution of Pluronic and left overnight. […]
# [2] = system: human Carbonic Anhydrase (HCAI and HCAII); test: Extraction from lysed blood by binders on nanoparticles (SDS-PAGE, MS); format: binding; conditions: lysed fresh blood, silver stained gel
# Description: The selected binders were resynthesized with an Acm-protected Cys residue in position 24. After removal of the Acm group the binders were immobilized on polystyrene nanoparticles coated with Pluronic® F108-PDS, by incubation for 1 hour in 10 mM Phosphate buffer at pH 7.4 containing 150 mM NaCl. The coating material forms monolayers of PEG equipped with activated disulfide groups that spontaneously react with free thiols under the release of 2-mercaptopyridine (Fromell, K., Hulting, G., Ilichev, A., Larsson, A. & Caldwell, K. C. Analytical Chemistry 79, 8601-07 (2007)).
# Approximately 60 μL of freshly drawn blood was lysed by dilution in 240 μL of distilled water followed by centrifugation to remove cell debris. HCAII resides in the red blood cells and in order to access the protein, cells have to be lysed. The supernatant was isolated and incubated with the functionalized nanoparticles for 30 minutes to allow them to capture HCAII. The particles were washed three times in PBS, and centrifuged after each wash. The binders and the captured proteins were cleaved from the particles using dithiothreitol and separated from the particles by centrifugation. […]
# There are two isoforms of human Carbonic Anhydrase, HCA I and HCAII, in blood. […] The bands from the gel were cut, […] digested and analysed by MALDI-TOF-MS, displaying that the bands contained both isoforms. […]
# HCAII = target: T1, HCAII (Homo sapiens, UniProt P00918); test: SPR biosensor analysis, immobilized HCAII; format: binding; conditions: ratio of SPR dissociation constants
# T1 construct: purchased Sigma
# Description: The sixteen polypeptide conjugates were also characterized by SPR biosensor analysis (Biacore®, GE Healthcare), using a Biacore® 2000 instrument, Biacore® CM-5 chip and HBS-EP buffer pH 7.4 (Biacore®, GE Healthcare) with addition of 1% DMSO for the interaction studies. Peptide solutions were prepared by dilution in buffer from 20 μM stock solutions in DMSO. HCAII was immobilized on the chip using standard EDC/NHS coupling in Acetate buffer pH 5.5. The binders were allowed to flow over the chip at 7 concentrations in the range from 1 nM to 500 nM and the interactions were evaluated using a 1:1 binding model (BiaEvaluation).
# HCAI and HCAII were immobilized in different flowcells on a CM-5 (Biacore) chip using standard EDC/NHS coupling in Acetate buffer at pH 5.5.
# SPR measurements were performed on a Biacore® 2000 instrument, with the proteins immobilized on a Biacore® CM-5 sensor chips (GE Healthcare). All interaction studies were performed in Biacore® HSB-EP buffer with the addition of 1% (v/v) DMSO. HCAII (Sigma, lyophilized powder) was dissolved in Acetate buffer pH 5.5 to a 2 mg/mL solution. HCAII were conjugated to the surface by EDC/NHS coupling reactions in Acetate buffer pH 5.5. Solutions of the polypeptide binders were prepared in HBS-EP buffer from stock solutions of 20 μM in DMSO and allowed to flow over the surface at 20 μL/min, with blank injections after every series. […]
# Solubility in buffer = conditions: sequence conjugated to a fluorescein probe
# hAChE = target: T2, hAChE (Homo sapiens, UniProt P22303); test: Capture of hAChE from cerebrospinal fluid by binder on nanoparticles (SDS-PAGE, nanoparticle ELISA); format: binding; conditions: binder on Pluronic-coated polystyrene nanoparticles, patient CSF, sandwich ELISA
# T2 construct: monitoring the capturing of hAChE from cerebrospinal fluid (CSF) obtained from Uppsala University hospital; from tissue; host or cells: human cerebrospinal fluid (Uppsala University Hospital)
# Description: The selectivity of 4-C10L17-Ac was determined by monitoring the capturing of hAChE from cerebrospinal fluid (CSF) obtained from Uppsala University hospital. CSF represents a complex biological milieu with several other proteins in high concentration and one of considerable interest with regards to future applications. The selected binder was resynthesized with an acetamidomethyl-(Acm-) protected Cys residue in position 24, instead of an Ala in this position, and attached to polystyrene nanoparticles coated with Pluronic® F108-PDS by disulfide bond formation after Acm deprotection. […] After the washing steps the particles were analyzed by ELISA and gel electrophoresis. […]
# The capture of hAChE by 4-C10L17-Ac was also analyzed by a nanoparticle ELISA based on luminescence. […] After three washing steps the substrate luminol was added and the resulting luminescent signal recorded. […]
# Pluronic F108-PDS (Allvivo Inc.) was adsorbed to polystyrene latex nanoparticles (Bangs laboratories Inc.) by incubating a 2% (w/v) suspension of particles with 10 mg/mL of Pluronic F108-PDS over night at room temperature under constant shaking. […] Aliquots of 8 μL of the supernatants were analyzed by gradient SDS-PAGE gels electrophoresis using NuPAGE® Novex Bis-Tris 4-12% (v/w) gel and MES running buffer (Invitrogen). […]
# phosphopeptides = conditions: literature; cited from earlier work
# T2 sequence (P22303 32-614): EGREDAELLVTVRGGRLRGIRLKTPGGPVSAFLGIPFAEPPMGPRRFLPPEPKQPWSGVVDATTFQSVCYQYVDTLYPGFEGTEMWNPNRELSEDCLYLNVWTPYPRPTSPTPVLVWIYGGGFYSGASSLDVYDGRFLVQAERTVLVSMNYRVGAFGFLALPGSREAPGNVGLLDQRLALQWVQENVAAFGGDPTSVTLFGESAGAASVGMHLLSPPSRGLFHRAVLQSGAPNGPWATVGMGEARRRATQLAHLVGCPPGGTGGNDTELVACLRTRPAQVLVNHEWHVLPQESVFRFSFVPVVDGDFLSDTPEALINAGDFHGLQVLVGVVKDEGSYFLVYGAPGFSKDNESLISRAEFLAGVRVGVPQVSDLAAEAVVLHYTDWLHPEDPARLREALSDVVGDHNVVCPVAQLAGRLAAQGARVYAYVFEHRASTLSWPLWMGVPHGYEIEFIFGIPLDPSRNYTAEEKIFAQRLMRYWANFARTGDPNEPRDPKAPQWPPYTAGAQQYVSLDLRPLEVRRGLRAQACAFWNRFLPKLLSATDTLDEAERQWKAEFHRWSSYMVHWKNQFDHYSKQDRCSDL
compound,measurement,setting,value
4-C10L17: SEQ ID NO: 8 NAADLEARIKHLRERLKARGPRDAAQLAEQLARAFERFARAG,[θ]222 at high concentration,[1]; high concentration 30-230 μM as listed per peptide,−19500 deg cm^2 dmol^−1
same,[θ]222 at low concentration,[1]; low concentration 1-5 μM as listed per peptide,−11800 deg cm^2 dmol^−1
same,"effect of α-casein on fluorescence emission spectrum, negative controls",α-casein,No effect
Ac-NAADLEARIRHLRERLAARGPRDAAQLAEQLARK([Ahx-Benzoyl(4-SO2NH2)])FEK(X1)FARAG-NH2 (N-terminus and C-terminus assumed) [4-C37L34-B],proteins extracted from lysed blood,[2],extract Carbonic Anhydrases predominantly
same,discrimination between HCAI and HCAII (factor),HCAII,approximately 30
same,solubility in buffer,Solubility in buffer,poorly soluble
Ac-NAADLEARIK(X1)HLRERLK([Ahx-Ahx-Acridin9yl])ARGPRDAAQLAEQLARAFERFARAG-NH2 (C-terminus assumed) [4-C10L17-Ac],capture of hAChE from CSF,hAChE,selectively extract hAChE from CSF
"O=C(O)c1cc(CN(Cc2ccccn2)Cc2ccccn2)cc(CN(Cc2ccccn2)Cc2ccccn2)c1 [PP1, 3,5-Bis[[bis(2-pyridylmethyl)amino]methyl]benzoic acid]",dissociation constants for phosphopeptides,phosphopeptides,μM range
